Reference: patent US8476197B2, “Aminopropenoates as fungicides” (priority 2009, dated 2013)
Marks after values point to notes of the source that are not given here.

Settings: pH 2.3

| Log P | Structure (SMILES) |
| --- | --- |
| 2.66 | COC(=O)C(C#N)=C(NC(C)c1nccs1)c1sc(C)nc1C(F)(F)F (stereo not shown) [Compound 17] |
| 2.66 | C=CCONC(=O)C(C#N)=C(NC(C)C(C)C)c1cccnc1Cl (stereo not shown) [Compound 1461] |
| 2.69 | CCOC(=O)C(C#N)=C(NC(C)C(C)C)c1cccnc1C(C)=NO (stereo not shown) [Compound 985] |
| 2.95 | CCOC(=O)C(C#N)=C(Nc1cc(F)ccc1F)c1cccnc1Cl [Compound 1609] |

Same assay, conditions: pH 2.7

| Structure (SMILES) | Log P |
| --- | --- |
| CCOC(=O)C(C#N)=C(NC(C)c1nc(C)c(C)s1)c1sc(C)nc1C(F)(F)F (racemic) [Compound 143] | 3.83^[a] |
| CCOC(=O)C(C#N)=C(NC(C)CC)c1sccc1C(F)(F)F (stereo not shown) [Compound 829] | 3.83^[a] |
| CCOC(=O)C(C#N)=C(NC(CC)CC#N)c1cn(C)nc1C(F)F (stereo not shown) [Compound 1342] | 2.39^[a] |
| CCOC(=O)C(C#N)=C(NC(C(=O)OC)C(C)C)c1cn(C)nc1C(F)F (racemic) [Compound 674] | 2.84^[a] |
| COC(=O)C(C#N)=C(NC(C)c1nccs1)c1sc(C)nc1C(F)(F)F (stereo not shown) [Compound 17] | 2.78 |
| CCOC(=O)C(C#N)=C(NCc1nc(C(F)(F)F)cs1)c1cn(C)nc1C(F)F [Compound 192] | 2.78^[a] |
| CCOC(=O)C(C#N)=C(NC(C)c1cnn(C)c1)c1cccnc1Cl (stereo not shown) [Compound 321] | 2.2^[a] |
| CCOC(=O)C(C#N)=C(NC(C)c1ccc(F)cc1)c1sc(C)nc1C(F)(F)F (mixture of isomers) [Compound 450] | 3.96^[a] |
| C=CCOC(=O)C(C#N)=C(NC(C)c1ccccn1)c1cn(C)nc1C(F)F (mixture of isomers) [Compound 307] | 2.56^[a] |
| CCOC(=O)C(C#N)=C(NC(CC)c1ccccc1OC)c1cn(C)nc1C(F)F (racemic) [Compound 557] | 3.62^[a] |
| CCOC(=O)C(C#N)=C(NC1(c2cccc(Cl)c2)CC1)c1cn(C)nc1C(F)F [Compound 1361] | 3.51^[a] |
| CCOC(=O)C(C#N)=C(NC1CC1(C)C)c1cccnc1Cl (stereo not shown) [Compound 1055] | 3.25^[a] |
| CCOC(=O)C(C#N)=C(NC(C)C(C)C)c1scnc1Cl (stereo not shown) [Compound 1468] | 3.46^[a] |
| CCOC(=O)C(C#N)=C(NC(C)c1ccccc1)c1sccc1C(F)(F)F (mixture of isomers) [Compound 440] | 4.16^[a] |
| CCOC(=O)C(C#N)=C(NC(C)c1nccs1)c1cn(C)nc1C(Cl)Cl (stereo not shown) [Compound 1564] | 2.75^[a] |
| CCOC(=O)C(C#N)=C(NC1(c2ccc(Cl)cc2)CC1)c1cn(C)nc1C(F)F [Compound 1360] | 3.58^[a] |
| CCOC(=O)C(C#N)=C(NC1CCC1)c1ccncc1F [Compound 804] | 2.66^[a] |
| CCOC(=O)C(C#N)=C(NC(C)CC)c1nc(SC)ncc1Br (racemic) [Compound 841] | 3.89^[a] |
| CCOC(=O)C(C#N)=C(NC(C)c1nccs1)c1sc(C)nc1C(F)(F)F (racemic) [Compound 142] | 3.13^[a] |
| CC(C)C(C)NC(=C(C#N)C(=O)N1CCSC1)c1cccnc1Cl (stereo not shown) [Compound 1509] | 3.19^[a] |
| COCCNC(=O)C(C#N)=C(NC(C)C(C)C)c1cn(C)nc1C(F)F (stereo not shown) [Compound 1005] | 2.59^[a] |
| CCOC(=O)C(C#N)=C(NC(C)c1nccs1)c1cccnc1Cl (stereo not shown) [Compound 6] | 2.58 |
| CCOC(=O)C(C#N)=C(NC(C)c1nccs1)c1cccnc1C(F)(F)F (racemic) [Compound 232] | 2.9^[a] |
| CCOC(=O)C(C#N)=C(NC(C)c1c(Cl)cccc1Cl)c1cn(C)nc1C(Cl)Cl (stereo not shown) [Compound 1574] | 3.94^[a] |
| CCOC(=O)C(C#N)=C(NC(C)COCc1ccccc1)c1cccnc1Cl (stereo not shown) [Compound 1162] | 3.71^[a] |

| Structure (SMILES) | Log P |
| --- | --- |
| COC(=O)C(C#N)=C(NCc1ccc(F)cn1)c1sc(C)nc1C(F)(F)F [Compound 202] | 2.67^[a] |
| CCOC(=O)C(C#N)=C(NC(C)(C)C#CCOC)c1sccc1C(F)(F)F [Compound 1099] | 3.55^[a] |
| CCOC(=O)C(C#N)=C(Nc1ccc2ncsc2c1)c1cn(C)nc1C(F)F [Compound 473] | 2.44^[a] |
| CC(C)C(C)NC(=C(C#N)C(=O)N1CCCO1)c1cccnc1Cl (stereo not shown) [Compound 1612] | 2.55^[a] |
| CCOC(=O)C(C#N)=C(NC(C)C(=O)OC)c1sccc1C(F)(F)F (stereo not shown) [Compound 657] | 3.11^[a] |
| CCOC(=O)C(C#N)=C(NC(C)C(C)(C)C)c1cn(C)nc1C(F)F (racemic) [Compound 918] | 3.37^[a] |
| CCOC(=O)C(C#N)=C(NC(C)(C)CSC)c1cc(C)oc1C [Compound 619] | 3.58^[a] |
| CCOC(=O)C(C#N)=C(NC(C)C1CC1)c1cccnc1C(F)F (racemic) [Compound 899] | 2.9^[a] |
| CCOC(=O)C(C#N)=C(NCc1nccs1)c1ncc(Cl)cc1Cl [Compound 228] | 2.7^[a] |
| CCOC(=O)C(C#N)=C(NC(C)(C)C(C)(C)C)c1cccnc1Cl [Compound 1273] | 3.8^[a] |
| CCNC(=O)C(C#N)=C(NC(C)c1ccccn1)c1ccnc(Cl)c1Cl (stereo not shown) [Compound 1201] | 2.53^[a] |
| CCOC(=O)C(C#N)=C(NC(C)C(N)=O)c1c(C)nn(C)c1Cl (stereo not shown) [Compound 607] | 1.58^[a] |
| CCOC(=O)C(C#N)=C(NC(C)CC(F)(F)F)c1cn(C)nc1C(F)F (stereo not shown) [Compound 1346] | 2.77^[a] |
| CCCCCCC(C)NC(=C(C#N)C(=O)OCC)c1sccc1C(F)(F)F (racemic) [Compound 815] | 5.48^[a] |
| CCOC(=O)C(C#N)=C(NC(C)c1ccc(C(C)C)cc1)c1cn(C)nc1C(F)F (racemic) [Compound 550] | 4.2^[a] |
| COC(=O)C(C#N)=C(NC(C)c1ccc(Cl)cc1)c1sc(C)nc1C(F)(F)F (stereo not shown) [Compound 427] | 3.98^[a] |
| CCOC(=O)C(C#N)=C(NC(C)c1nc2ccccc2[nH]1)c1cccnc1Cl (racemic) [Compound 279] | 2^[a] |
| CCOC(=O)C(C#N)=C(NC(C)c1nccs1)c1c(C(F)F)nn(C)c1F (mixture of isomers) [Compound 309] | 2.73^[a] |
| CCOC(=O)C(C#N)=C(NC(C)COCC(C)(C)C)c1cn(C)nc1C(F)F (stereo not shown) [Compound 1135] | 4.08^[a] |
| CCOC(=O)C(C#N)=C(NC(C)c1nccs1)c1c(C)nn(C)c1F (racemic) [Compound 38] | 2.37^[a] |
| CCOC(=O)C(C#N)=C(NC(C)C(F)(F)F)c1cn(C)nc1OC (racemic) [Compound 808] | 2.82^[a] |
| CCOC(=O)C(C#N)=C(NCCOc1ccccc1Br)c1cn(C)nc1C(F)F [Compound 1347] | 3.35^[a] |
| CCNC(=O)C(C#N)=C(NC(C)C(C)C)c1cn(C)nc1C(F)F (stereo not shown) [Compound 1278] | 2.71^[a] |
| CCOC(=O)C(C#N)=C(NC(C)c1cccs1)c1cn(C)nc1C(F)F (stereo not shown) [Compound 213] | 3.02^[a] |

Other lines, results leading:

| Log P | Structure (SMILES) |
| --- | --- |
| 2.66^[a] | CCOC(=O)C(C#N)=C(NC(C)(C)C(=O)OC)c1cccnc1Cl [Compound 1274] |
| 2.98^[a] | CCC#CC(C)(C)NC(=C(C#N)C(=O)OC)c1cccnc1Cl [Compound 1025] |
| 2.76^[a] | CCC(CC)NC(=C(C#N)C(=O)OC)c1cccnc1Cl [Compound 756] |
| 3.67^[a] | CCOC(=O)C(C#N)=C(NC(C)(C)C#Cc1ccc(C#N)cc1)c1cccnc1Cl [Compound 1272] |
| 3.1^[a] | CCOC(=O)C(C#N)=C(NC(C)c1ccccn1)c1sccc1Br (stereo not shown) [Compound 100] |
| 2.98^[a] | COC(=O)C(C#N)=C(NC(C)(C)c1c(F)cccc1F)c1cccnc1Cl [Compound 385] |
| 3.05^[a] | CCOC(=O)C(C#N)=C(NC(C)c1ccccn1)c1sccc1Cl (racemic) [Compound 160] |
| 4.06^[a] | CCOC(=O)C(C#N)=C(NC(C)C(C)C)c1nc(Cl)ccc1Cl (stereo not shown) [Compound 966] |
| 3^[a] | CCOC(=O)C(C#N)=C(NC(C)c1ccccn1)c1ccnc(Br)c1F (racemic) [Compound 1395] |
| 3.63^[a] | CCc1ccc(C(C)NC(=C(C#N)C(=O)OC)c2cccnc2Cl)cc1 (stereo not shown) [Compound 407] |
| 4.21^[a] | CCOC(=O)C(C#N)=C(NC(C)c1ccc(Cl)cc1)c1ccnc(Cl)c1Cl (racemic) [Compound 544] |
| 3.78^[a] | CCOC(=O)C(C#N)=C(NC(C)c1c(Cl)cccc1Cl)c1cnn(C)c1Cl (stereo not shown) [Compound 1559] |
| 3.83^[a] | CCOC(=O)C(C#N)=C(NC(C#N)c1ccc(Cl)cc1Cl)c1cccnc1Cl (racemic) [Compound 1267] |
| 2.73^[a] | CCOC(=O)C(C#N)=C(Nc1ccc(C#N)cc1)c1cccnc1Cl [Compound 1265] |
| 4.01^[a] | CCOC(=O)C(C#N)=C(NC(C)COc1ccccc1C)c1cccnc1Cl (stereo not shown) [Compound 1155] |
| 3.37^[a] | C#CC(NC(=C(C#N)C(=O)OCC)c1cccnc1Cl)C(C)C (stereo not shown) [Compound 1521] |
| 1.9^[a] | CCOC(=O)C(C#N)=C(Nc1cccnc1O)c1cccnc1Cl [Compound 286] |
| 2.35^[a] | CCOC(=O)C(C#N)=C(NC(C)c1ccccn1)c1cnn(C)c1Cl (racemic) [Compound 1484] |
| 3.76^[a] | CCOC(=O)C(C#N)=C(NC(C)C(C)CC)c1cccnc1Cl (stereo not shown) [Compound 1525] |
| 3.29^[a] | CSCCNC(=O)C(C#N)=C(NC(C)C(C)C)c1cccnc1Cl (stereo not shown) [Compound 1510] |
| 3.6^[a] | CCOC(=O)C(C#N)=C(NC(C)C(C)CC)c1cnn(C)c1Cl (mixture of isomers) [Compound 1544] |
| 3.87^[a] | CCOC(=O)C(C#N)=C(NC(C)[Si](C)(C)C)c1cccnc1Cl (stereo not shown) [Compound 1522] |
| 4.08^[a] | CCOC(=O)C(C#N)=C(NC(C)C(C)C)c1sccc1Cl (stereo not shown) [Compound 951] |
| 2.98^[a] | CCOC(=O)C(C#N)=C(NC(C)C1CC1)c1cnn(C)c1Cl (stereo not shown) [Compound 1482] |
| 2.92^[a] | CCOC(=O)C(C#N)=C(NC(C)CC(F)(F)F)c1cccnc1Cl (stereo not shown) [Compound 1366] |

Same assay, conditions: pH 7.5

| Log P | Structure (SMILES) |
| --- | --- |
| 2.63 | COC(=O)C(C#N)=C(NC(C)c1nccs1)c1sc(C)nc1C(F)(F)F (stereo not shown) [Compound 17] |
| 3.09 | CCOC(=O)C(C#N)=C(NC(C)CSC)c1ccc(C)nc1Cl (mixture of isomers) [Compound 633] |
| 2.56 | C=CCOC(=O)C(C#N)=C(NC(C)c1nccs1)c1cccnc1Cl (stereo not shown) [Compound 89] |
| 2.62 | C=CCONC(=O)C(C#N)=C(NC(C)C(C)C)c1cccnc1Cl (stereo not shown) [Compound 1461] |
| 2.67 | CCOC(=O)C(C#N)=C(NC(C)C(C)C)c1cccnc1C(C)=NO (stereo not shown) [Compound 985] |
| 2.83 | CCOC(=O)C(C#N)=C(Nc1cc(F)ccc1F)c1cccnc1Cl [Compound 1609] |
| 1.77 | CCOC(=O)C(C#N)=C(NC1CCOC1=O)c1cccnc1Cl (racemic) [Compound 231] |
